Reference: ChEMBL document CHEMBL1201862, “PubChem BioAssay data set” (2004)
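The compound was tested at five concentrations on cells cultured in 96-well plates, with a 48-hour exposure period. The concentration for 50% growth inhibition is given as GI50.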 Active and inactive are the calls of the source. No stated cut-off is given here; in the data, active = GI50 up to about 1.1 µM and inactive = higher.

Tests used:
Assay in all cases: NCI tumour cell line growth inhibition, 48 h
786-0 = test system: 786-0
A498 = test system: A498
A549 = test system: A549
CAKI-1 = test system: CAKI-1
DU-145 = test system: DU-145
HCT-116 = test system: HCT-116
HOP-92 = test system: HOP-92
KM12 = test system: KM12
MOLT-4 = test system: MOLT-4
Malme-3M = test system: Malme-3M
NCI-H226 = test system: NCI-H226
NCI-H522 = test system: NCI-H522
OVCAR-3 = test system: OVCAR-3
OVCAR-5 = test system: OVCAR-5
RXF 393 = test system: RXF 393
SF-268 = test system: SF-268
SK-OV-3 = test system: SK-OV-3
SNB-75 = test system: SNB-75
UACC-62 = test system: UACC-62
UO-31 = test system: UO-31

Structure (SMILES)	GI50 (786-0)	GI50 (A498)	GI50 (A549)	GI50 (CAKI-1)	GI50 (DU-145)	GI50 (HCT-116)	GI50 (HOP-92)	GI50 (KM12)	GI50 (MOLT-4)	GI50 (Malme-3M)	GI50 (NCI-H226)	GI50 (NCI-H522)	GI50 (OVCAR-3)	GI50 (OVCAR-5)	GI50 (RXF 393)	GI50 (SF-268)	GI50 (SK-OV-3)	GI50 (SNB-75)	GI50 (UACC-62)	GI50 (UO-31)
COC(=O)c1cc2ccc(OC(C)=O)c(OC(C)=O)c2cn1	18.5 µM (inactive)	14 µM (inactive)	21.2 µM (inactive)	20.8 µM (inactive)	24.7 µM (inactive)	17.3 µM (inactive)	17.1 µM (inactive)	18.7 µM (inactive)	4.12 µM (inactive)	8.07 µM (inactive)	22.9 µM (inactive)	17.4 µM (inactive)	13 µM (inactive)	18.7 µM (inactive)	17.4 µM (inactive)	20.8 µM (inactive)	19.4 µM (inactive)	20 µM (inactive)	2.09 µM (inactive)	15.8 µM (inactive)
O=[N+]([O-])c1ccc2c(c1)N=C1OC(c3c[nH]c4ccc(COc5ccccc5)cc34)C(O)=C1N2 (stereo not given)	53.8 µM (inactive)	> 100 µM (inactive)	> 100 µM (inactive)	> 100 µM (inactive)	> 100 µM (inactive)	72.8 µM (inactive)	> 100 µM (inactive)	> 100 µM (inactive)	1.82 µM (inactive)	> 100 µM (inactive)	> 100 µM (inactive)	17.3 µM (inactive)	> 100 µM (inactive)	> 100 µM (inactive)	> 100 µM (inactive)	> 100 µM (inactive)	98.9 µM (inactive)	25.1 µM (inactive)	52 µM (inactive)	> 100 µM (inactive)
CC(=O)c1ccc(O)c(CN(C2CCCCC2)C2CCCCC2)c1O	> 100 µM (inactive)	> 100 µM (inactive)	> 100 µM (inactive)	> 100 µM (inactive)	> 100 µM (inactive)	> 100 µM (inactive)	> 100 µM (inactive)	> 100 µM (inactive)	61.4 µM (inactive)	> 100 µM (inactive)	> 100 µM (inactive)	> 100 µM (inactive)	> 100 µM (inactive)	> 100 µM (inactive)	> 100 µM (inactive)	> 100 µM (inactive)	> 100 µM (inactive)	2.19 µM (inactive)	> 100 µM (inactive)	83.2 µM (inactive)
Cc1ccc2c(n1)C(=O)c1ccccc1C2=O	27.6 µM (inactive)	31.6 µM (inactive)	21.2 µM (inactive)	39.2 µM (inactive)	17.3 µM (inactive)	22.9 µM (inactive)	51.6 µM (inactive)	30.1 µM (inactive)	33 µM (inactive)	9.35 µM (inactive)	38 µM (inactive)	21.7 µM (inactive)	3.53 µM (inactive)	21.9 µM (inactive)	24.8 µM (inactive)	31.3 µM (inactive)	77.4 µM (inactive)	29.8 µM (inactive)	20.5 µM (inactive)	32.5 µM (inactive)
Oc1[nH]c(Nc2ccc(Cl)c(C(F)(F)F)c2)nc2ncnc1-2	25.7 µM (inactive)	24 µM (inactive)	> 100 µM (inactive)	> 100 µM (inactive)	36.1 µM (inactive)	34.7 µM (inactive)	58.5 µM (inactive)	44.8 µM (inactive)	23.2 µM (inactive)	30.3 µM (inactive)	> 100 µM (inactive)	14.2 µM (inactive)	36.6 µM (inactive)	65.9 µM (inactive)	26.1 µM (inactive)	36.2 µM (inactive)	> 100 µM (inactive)	33.9 µM (inactive)	32.6 µM (inactive)	> 100 µM (inactive)
COc1ccc2nc3cc(Cl)ccc3c(NCCCN(CCCl)CCCl)c2c1	0.0101 µM (active)	0.0163 µM (active)	< 0.0122 µM (active)	< 0.01 µM (active)	0.0121 µM (active)	0.012 µM (active)	0.0126 µM (active)	0.052 µM (active)	< 0.01 µM (active)	0.0841 µM (active)	0.0385 µM (active)	0.0105 µM (active)	0.0432 µM (active)	0.034 µM (active)	0.0107 µM (active)	0.0164 µM (active)	0.0484 µM (active)	0.177 µM (active)	0.0156 µM (active)	0.0472 µM (active)
